# Measurements: paper PMC3411462, “Long-acting κ opioid antagonists nor-BNI, GNTI and JDTic: pharmacokinetics in mice and lipophilicity” (BMC Pharmacology, 2012)
# Where two headings read alike, the source gives them in different places.
# Columns and labels:
# [1] = Brain and plasma concentrations in mice after intraperitoneal administration (LC-MS-MS), non-compartmental analysis; format: in vivo; settings: for concentration at 2 h / half-life / AUC(0-inf) / concentration at 0.5 h / concentration at 1 h / concentration at 4 h / concentration at 24 h / CL/F / Vd/F: 10 mg/kg; for half-life: read-out: t1/2 (converted); for k el: read-out: Lambda_z (converted)
# Water solubility = format: physicochemical; settings: distilled water, thermodynamic from solid, 25 °C, salt tested
# Experimental: Distilled water was added slowly by microsyringe to 10–15 mg of drug in a glass vial, swirling until no solid was visible.
# κ opioid receptor = tested on: κ opioid receptor; parameters: method as in PMID 15464069; settings: intragastric administration; cited from earlier work
# mice = assay: Fatalities and behavioral effects after i.p. administration; settings: 100 mg kg^-1
# Experimental: Experiments were performed between 10 am and 6 pm. Mice were not used in other experiments, or exposed to other drugs, before testing began.
# Doses are reported by weight of the specified salt. Intraperitoneal injections were administered in distilled water vehicle (10 mL kg^-1). Body mass was measured to ±0.1 g. Some values were inadvertently measured on a low-precision balance (± 2.5 g); these timepoints were replicated at ±0.1 g.
# [2] = male, Swiss-Webster, mouse, ip, brain NCA, 10 mg/kg i.p.
# [3] = male, Swiss-Webster, mouse, ip, plasma NCA, 10 mg/kg i.p.
# [4] = male, Swiss-Webster, mouse, plasma, intraperitoneal, read-out: Conc (plasma, NCA input)
# [5] = male, Swiss-Webster, mouse, plasma, ip, 10 mg/kg i.p., read-out: mean (plasma)
# [6] = male, Swiss-Webster, mouse, plasma, ip, 10 mg/kg i.p., individual mice, read-out: [drug],plasma (free base equivalent)
compound,measurement,setting,value
"CC(C)[C@@H](CN1CC[C@@](C)(c2cccc(O)c2)[C@@H](C)C1)NC(=O)[C@H]1Cc2ccc(O)cc2CN1 [JDTic, (3R)-7-Hydroxy-N-((1S)-1-{[(3R,4R)-4-(3-hydroxyphenyl)-3,4-dimethyl-1-piperidinyl]methyl}-2-methylpropyl)-1,2,3,4-tetrahydro-3-isoquinolinecarboxamide]",concentration at 2 h,"[1]; male, Swiss-Webster, mouse, brain, ip, 10 mg/kg i.p., <MRC substituted by MRC/2, read-out: mean (brain)",38.4 ng/g
same,half-life,"[1]; male, Swiss-Webster, mouse, brain, ip, brain NCA, 10 mg/kg i.p.",220 h
same,AUC(0-inf),"[1]; male, Swiss-Webster, mouse, brain, ip, brain, 10 mg kg^-1 i.p., non-compartmental analysis, read-out: AUC 0–∞,brain",10300 ng·h/mL
same,Tmax,"[1]; male, Swiss-Webster, mouse, in vivo, ip, ·2HCl salts, 10 mg kg^-1 i.p., mice",0.5 h
same,AUC(0-t),[1]; [2],4400 ng·h/mL
same,Tmax,[1]; [2],0.5 h
same,Cmax,"[1]; male, Swiss-Webster, mouse, ip, brain NCA, 10 mg/kg i.p., read-out: Cmax",71.1 ng/mL
same,k el,[1]; [2],8.75e-07 s⁻¹
same,AUC(0-t),[1]; [3],866 ng·h/mL
same,Tmax,[1]; [3],0.5 h
same,k el,[1]; [3],3.75e-05 s⁻¹
same,MRT inf,"[1]; male, Swiss-Webster, mouse, ip, plasma NCA, 10 mg/kg i.p., read-out: MRT 0-inf_obs",4.3 h
same,Cmax,"[1]; male, Swiss-Webster, mouse, ip, plasma, 10 mg kg^-1 i.p., mice, read-out: C max,p",245 ng/mL
same,concentration at 0.5 h,[1]; [4],245 ng/mL
same,concentration at 1 h,[1]; [4],154 ng/mL
same,concentration at 2 h,[1]; [4],56.9 ng/mL
same,concentration at 4 h,[1]; [4],46.6 ng/mL
same,concentration at 24 h,[1]; [4],3 ng/mL
same,concentration at 0.5 h,[1]; [5],245 ng/mL
same,concentration at 1 h,[1]; [5],154 ng/mL
same,concentration at 2 h,[1]; [6],42.3 ng/mL
same,concentration at 2 h,[1]; [5],57 ng/mL
same,concentration at 4 h,[1]; [5],47 ng/mL
same,concentration at 24 h,[1]; [6],5 ng/mL
same,concentration at 24 h,"[1]; male, Swiss-Webster, mouse, plasma, ip, 10 mg/kg i.p., <MRC substituted by MRC/2, read-out: mean (plasma)",3 ng/mL
same,AUC(0-inf),"[1]; male, Swiss-Webster, mouse, plasma, ip, plasma NCA, 10 mg/kg i.p., read-out: AUC 0-inf_obs",888 ng·h/mL
same,CL/F,"[1]; male, Swiss-Webster, mouse, plasma, ip, plasma NCA, 10 mg/kg i.p., read-out: Cl/F_obs (converted)",188 mL/min/kg
same,Vd/F,"[1]; male, Swiss-Webster, mouse, plasma, ip, plasma NCA, 10 mg/kg i.p., read-out: Vz/F_obs",83.3 L/kg
same,half-life,"[1]; male, Swiss-Webster, mouse, plasma, ip, plasma NCA, 10 mg/kg i.p.",5.13 h
same,AUC(0-inf),"[1]; male, Swiss-Webster, mouse, plasma, ip, plasma, 10 mg kg^-1 i.p., non-compartmental analysis, read-out: AUC 0–∞,p",888 ng·h/mL
same,CL/F,"[1]; male, Swiss-Webster, mouse, plasma, ip, plasma, 10 mg kg^-1 i.p., non-compartmental analysis, read-out: CL/F (converted)",18.3 mL/min/kg
same,Vd/F,"[1]; male, Swiss-Webster, mouse, plasma, ip, plasma, 10 mg kg^-1 i.p., non-compartmental analysis, read-out: V z /F",83 L/kg
same,Decline of mean brain level,"[1]; over 24 hours, 10 mg kg^-1 i.p.",56%
same,AUMC 0-inf_obs,"[1]; plasma NCA, 10 mg/kg i.p.",3814.94 ng/ml*h^2
same,Tlag,"[1]; plasma NCA, 10 mg/kg i.p.",0 h
same,Maximal plasma concentration relative to those after nor-BNI and GNTI,"[1]; same dose, 10 mg kg^-1 i.p.",less than 10%
same,"C max,brain,u","[1]; unbound brain, 10 mg kg^-1 i.p., in vivo brain binding assumed at least 3-fold greater than homogenate",< 4 nM
same,Decline of mean plasma concentration from peak,"[1]; within 1 hour, 10 mg kg^-1 i.p.",37%
same,Decline of mean plasma concentration from peak,"[1]; within 2 hours, 10 mg kg^-1 i.p.",77%
same,Decline of mean plasma concentration from peak,"[1]; within 4 hours, 10 mg kg^-1 i.p.",at least 80%
same,solubility,Water solubility,> 45 mM
same,Delay in onset of κ antagonism,κ opioid receptor,greater than 6 hours
same,Behavioral effects observed,mice,"Only mild behavioral effects, such as hiccup-like spasms and shivering"
same,Fatalities,mice,no fatalities
